Measured values reported in patent US20240269238A1, “Therapeutic Regimens and Methods for Reducing Body Weight in a Subject with Fatty Liver Disease using a GLP-1R and GCGR Agonist” (Spitfire Pharma LLC, priority 2022, published 2024).

Experiments:
[1] = Phase 1b 24-week NAFLD study (Example 3): serum lipids, blood pressure, heart rate, glycemic control; type: in vivo, human
Source text: Provided herein is disclosure of a 12-week extension study of the study provided in Example 1, providing a 24-week a Phase 1b, randomized, double-blind, placebo-controlled study to assess the effects of pemvidutide (also termed herein as ALT-801), the safety of pemvidutide and effects on weight loss, hepatic fat fraction, anthropometric parameters, lipid metabolism, as well as inflammatory, fibrosis and other markers in diabetic and non-diabetic (type 2 diabetes) overweight and obese (BMI≥28.0 kg/m^2) subjects with NAFLD (defined as liver fat content (LFC) by MRI-PDFF ≥10%; absence of significant fibrosis, defined as FibroScan® LSM ≤10 kPa), alanine aminotransferase (ALT) and aspartate aminotransferase (AST) laboratory values of ≤75 IU/L and HbA1c <9.5. Men and women aged 18-65 years were studied. Diabetic subjects were defined as those that have undergone stable dose (≥3 months) metformin or SLGT-2 therapy and no use of insulin, sulfonylureas, DPP-4, GLP-1 treatment; Ninety-four (94) subjects were enrolled in the initial 12-week Phase 1b NAFLD trial and 83 subjects who completed were invited to receive a total of 12 additional weeks of blinded treatment. Of those subjects, 66 consented to rollover, of which 64 were eligible to participate.
The primary endpoint of this study was a reduction in liver fat content (LFC) by MRI-PDFF at Week 24 compared to Week 0 (zero). Key secondary endpoints include percent (%) weight loss at Week 24 compared to Week 0 (zero), and liver inflammation by alanine aminotransferase (ALT) levels and corrected T1 (cT1) imaging at Week 24 as compared to Week 0 (zero). Adverse events (AEs), including serious and severe AEs, AEs leading to discontinuation, GI tolerability, vital signs, and glycemic control including fasting glucose and HbA1c levels were also measured.

[2] = system: plasma lipids and lipoproteins; assay: Phase 1 study NCT0456124 (Example 2): lipoprotein profiling by NMR and lipidomic profiling by UHPLC-MS; type: in vivo, human
Experimental: To test the lipid-lowering effects of pemvidutide, an analysis of Phase I clinical trial (NCT0456124) data was carried out. The subjects with overweight/obesity (BMI 25-40 kg/m^2) were randomized at 1 site in Australia (NCT0456124). Subjects were randomized 4:1 pemvidutide:placebo, with placebos pooled. […] Lipoprotein and glycoprotein profiling covering 33 lipoprotein related parameters was performed by ^1H-NMR on fasting plasma samples obtained at Day −1 (baseline), Day 43, and Day 84 from the 34 subjects who completed NCT0456124. Lipidomic profiling covering 600 lipid species was performed by ultra-high performance liquid chromatography-mass spectrometry on fasting plasma samples obtained at Day −1 (baseline), Day 43, and Day 84 from the 34 subjects who completed NCT0456124. For the lipid profiling, plasma fractionation was performed either using methanol to extract fatty acyls, bile acids, steroids, and lyso-glycerophospholipids, or using a chloroform/methanol mix to extract glycerolipids, cholesteryl esters, sphingolipids, and glycerophospholipids. Lipid classification followed the classification system proposed by Fahy et al. (J. Lipid Res. 2005; 46:839-861) and the LIPID MAPS initiative (http://www.lipidmaps.org) (see FIG. 8).
The color code represents the log 2 (robust fold-change) with blue colors denoting reduced lipoproteins (negative fold-changes) and red colors denoting increased lipoproteins (positive fold-changes).
Given the observed changes in the total cholesterol, triglycerides and lipoproteins, an evaluation of the serum lipid composition covering 600 lipid species at Day −1 (baseline), Day 43, and Day 84 from the 34 subjects who completed NCT0456124 was performed. Results are presented in FIG. 10 as log 2 pairwise fold change with blue colors denoting a reduction in the lipid relative to baseline, and red an increase. The grey/black bars indicate significant p-values of Wilcoxon test.
The horizontal dashed line represents the lower limit of significance, while the vertical lines show a fold-change from baseline of ±0.75 on the log 2 scale.

[3] = target: glucagon-like peptide 1 receptor (GLP-1R) (Homo sapiens, UniProt P43220); assay: cellular assay, agonist activity at GLP-1R; type: cell-based
Source text: This disclosure relates to a dual agonist peptide(s) as well as pharmaceutical dosage formulations comprising, and methods for using, the same. The dual agonist peptides have affinity for, and in preferred embodiments about equal affinity for, glucagon-like peptide 1 receptor (GLP-1R) and glucagon receptor (GCGR), as may be determined using a cellular assay. In some embodiments, this disclosure provides pharmaceutical dosage formulations configured to induce weight loss in a human being with fatty liver disease. In some embodiments, the human being may, or may not, suffer from type 2 diabetes. In some embodiments, the disclosure provides pharmaceutical dosage formulations configured to reduce pathogenic plasma lipid mediators. As used herein, “pathogenic” serum lipid mediators, included but are not limited to the following reactive lipid species: malondialdehyde (MDA), isolevuglandins (IsoLG), methyglyoxal (MGO), 4-oxononenal (ONE), and 4-hydroxynonenal (HNE). Oxidized phospholipids include 1-palmitoyl-2-oxovaleroyl-sn-glycero-3-phosphorylcholine (POVPC), 1-O-alkyl-2-azelaoyl-sn-glycero-3-phophorylcholine (azPAF), 1-(Palmitoyl)-2-(5-keto-6-octene-dioyl) phosphatidylcholine (KOdiA-PC), 1-palmitoyl-2-F2-isoprostane-sn-glycero-3-phosphocholine (F2IsoP-PC), and 1-palmitoyl-2-(5,6)-epoxyisoprostane E2-sn-glycero-3-phosphocholine (PEIPC). […]

glucagon-like peptide 1 receptor (GLP-1R), sequence (P43220 24-463): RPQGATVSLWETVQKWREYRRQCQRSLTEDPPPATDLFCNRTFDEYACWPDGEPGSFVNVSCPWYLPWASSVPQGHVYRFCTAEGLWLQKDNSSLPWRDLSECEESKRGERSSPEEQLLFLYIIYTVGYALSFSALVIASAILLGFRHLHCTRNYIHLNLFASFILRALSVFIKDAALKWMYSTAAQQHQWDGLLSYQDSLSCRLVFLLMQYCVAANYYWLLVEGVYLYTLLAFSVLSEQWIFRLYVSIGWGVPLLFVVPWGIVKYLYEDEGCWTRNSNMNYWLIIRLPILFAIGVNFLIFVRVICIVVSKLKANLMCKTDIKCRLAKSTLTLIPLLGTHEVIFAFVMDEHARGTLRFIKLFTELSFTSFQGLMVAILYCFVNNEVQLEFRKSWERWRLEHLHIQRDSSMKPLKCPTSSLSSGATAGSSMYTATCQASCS

In the case of `CC[C@H](C)[C@H](NC(=O)[C@H](Cc1ccccc1)NC(=O)[C@H](CCC(=O)O)NC(=O)[C@@H]1CCCCNC(=O)CC[C@H](NC(=O)[C@H](CC(=O)O)NC(=O)[C@H](CC(C)C)NC(=O)[C@H](Cc2ccc(O)cc2)NC(=O)[C@H](CCCCN)NC(=O)[C@H](CO)NC(=O)[C@H](Cc2ccc(O)cc2)NC(=O)[C@H](CC(=O)O)NC(=O)[C@H](CO)NC(=O)[C@@H](NC(=O)[C@H](Cc2ccccc2)NC(=O)[C@@H](NC(=O)CNC(=O)[C@H](CCC(N)=O)NC(=O)C(C)(C)NC(=O)[C@@H](N)Cc2c[nH]cn2)[C@@H](C)O)[C@H](C)O)C(=O)N[C@@H](CCCCNC(=O)C2O[C@@H](OCCCCCCCCCCCCCCCCCC(=O)O)C(O)C(O)[C@@H]2O)C(=O)N[C@@H](C)C(=O)N[C@@H](C)C(=O)N1)C(=O)N[C@@H](CCC(N)=O)C(=O)N[C@@H](Cc1c[nH]c2ccccc12)C(=O)N[C@@H](CC(C)C)C(=O)N[C@@H](CC(C)C)C(=O)N[C@@H](CCC(N)=O)C(=O)N[C@H](C(N)=O)[C@@H](C)O` (stereo partly drawn) [ALT-801, Pemvidutide], the “systolic blood pressure reduction” value ([1]; 2.4 mg per week, week 24) is reported as “significant”, the “blood pressure and heart rate” value ([1]; all doses, week 24) is reported as “improvements in blood pressure without clinically meaningful increases in heart rate” and the serum lipids ([1]; all doses, week 24) is reported as “improvements in serum lipids”. The “glycemic parameters (fasting glucose and HbA1c)” value ([1]; diabetic patients, all doses, Week 24) was “improvements in glycemic parameters”, the “phosphatidyl-ethanolamine (PE) glycerophospholipids level” value ([2]; 1.8 mg) was “significantly reduced atherosclerotic plaque forming phosphatidyl-ethanolamine (PE) glycerophospholipids level” and the “pro-atherogenic lyso-PC levels” value ([2]; 1.8 mg) was “significantly reduced pro-atherogenic lyso-PC levels”. For the same molecule, the “number of VLDL and LDL particles and of smaller HDL particles (2D-NMR)” value ([2]; Day 43 and Day 84 vs Day -1) was “tend to be reduced”, the “serum lipid levels (glycerolipids, glycerophospholipids, sphingolipids)” value ([2]; within 12 weeks of treatment) was “significantly reduced serum lipid levels” and the EC50 [3] was roughly 40 pM.
